What was measured:
ErbB2 WT = ErbB2 WT (Homo sapiens (Human), UniProt P04626); assay: ErbB Enzyme Assay (HTRF KinEASE-TK), Assay 2; type: biochemical
EGFR = EGFR (Homo sapiens (Human), UniProt P00533); assay: ErbB Enzyme Assay (HTRF KinEASE-TK), Assay 3; type: biochemical
[1] = target: ErbB2 with Exon 20 YVMA insertion (HER2-YVMA) (Homo sapiens (Human), UniProt P04626, INS775YVMA); assay: Cellular Phosphorylation Assay, Assay 4 (constitutive ErbB2 phosphorylation, NIH 3T3 cells); type: cell-based
EGFR wild type (EGFR WT) = EGFR wild type (EGFR WT) (Homo sapiens (Human), UniProt P00533); assay: Cellular Phosphorylation Assay, Assay 5 (EGF-stimulated EGFR phosphorylation, NIH 3T3 cells); type: cell-based
BCRP = BCRP (Homo sapiens (Human), UniProt Q9UNQ0); assay: BCRP MDCKII efflux assay (Assay 7); type: in vitro ADME; settings: dog; efflux ratio Papp(B-A)/Papp(A-B), BCRP MDCKII cells; read-out: Assay 7 Pe Ratio
Procedure: Assay conditions included with and without the BCRP-specific inhibitor, KO143, at a concentration of 0.3 μM to ascertain the contribution of BCRP to the efflux value of the test compound.
Final organic concentration in the assay was 1%.

MDR1 (P-gp) = MDR1 (P-gp) (Homo sapiens (Human), UniProt P08183); assay: in vitro; settings: pig, LLC-PK1
[2] = cellular ErbB2 YVMA phosphorylation
[3] = cellular EGFR WT phosphorylation, EGF-stimulated
[4] = EGF-stimulated EGFR WT phosphorylation

Sequence of ErbB2 WT (P04626 23-1255): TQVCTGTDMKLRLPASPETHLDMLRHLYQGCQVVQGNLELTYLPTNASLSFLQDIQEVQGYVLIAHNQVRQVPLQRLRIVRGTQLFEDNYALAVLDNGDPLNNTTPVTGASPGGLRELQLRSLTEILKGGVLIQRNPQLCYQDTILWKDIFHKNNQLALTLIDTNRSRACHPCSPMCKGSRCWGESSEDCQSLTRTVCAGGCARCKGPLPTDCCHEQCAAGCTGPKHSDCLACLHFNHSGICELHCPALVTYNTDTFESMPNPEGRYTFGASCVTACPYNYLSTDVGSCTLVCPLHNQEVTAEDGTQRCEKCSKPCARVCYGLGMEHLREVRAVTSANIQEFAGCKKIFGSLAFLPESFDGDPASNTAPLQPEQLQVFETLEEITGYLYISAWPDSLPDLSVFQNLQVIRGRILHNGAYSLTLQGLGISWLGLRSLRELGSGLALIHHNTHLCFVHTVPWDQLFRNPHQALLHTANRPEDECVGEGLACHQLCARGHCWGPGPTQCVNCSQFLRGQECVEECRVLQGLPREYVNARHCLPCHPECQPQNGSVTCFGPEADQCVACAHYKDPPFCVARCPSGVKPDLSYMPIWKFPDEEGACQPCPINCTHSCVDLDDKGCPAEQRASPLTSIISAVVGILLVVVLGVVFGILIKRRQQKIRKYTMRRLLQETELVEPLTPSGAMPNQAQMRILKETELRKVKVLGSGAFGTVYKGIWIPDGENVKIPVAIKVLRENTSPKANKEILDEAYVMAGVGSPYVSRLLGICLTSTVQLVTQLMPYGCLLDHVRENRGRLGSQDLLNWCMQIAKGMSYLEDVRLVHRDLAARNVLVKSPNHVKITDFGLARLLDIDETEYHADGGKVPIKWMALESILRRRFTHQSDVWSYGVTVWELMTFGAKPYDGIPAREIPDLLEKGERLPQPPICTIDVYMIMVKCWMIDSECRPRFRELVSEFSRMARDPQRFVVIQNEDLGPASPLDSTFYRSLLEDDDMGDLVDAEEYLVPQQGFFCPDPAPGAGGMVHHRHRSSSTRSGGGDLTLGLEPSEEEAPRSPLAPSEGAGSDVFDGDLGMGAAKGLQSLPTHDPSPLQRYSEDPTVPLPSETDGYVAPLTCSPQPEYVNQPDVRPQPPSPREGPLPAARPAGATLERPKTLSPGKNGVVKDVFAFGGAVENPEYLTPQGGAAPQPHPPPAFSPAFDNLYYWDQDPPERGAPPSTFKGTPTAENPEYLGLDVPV
Sequence of BCRP (Q9UNQ0 whole entry): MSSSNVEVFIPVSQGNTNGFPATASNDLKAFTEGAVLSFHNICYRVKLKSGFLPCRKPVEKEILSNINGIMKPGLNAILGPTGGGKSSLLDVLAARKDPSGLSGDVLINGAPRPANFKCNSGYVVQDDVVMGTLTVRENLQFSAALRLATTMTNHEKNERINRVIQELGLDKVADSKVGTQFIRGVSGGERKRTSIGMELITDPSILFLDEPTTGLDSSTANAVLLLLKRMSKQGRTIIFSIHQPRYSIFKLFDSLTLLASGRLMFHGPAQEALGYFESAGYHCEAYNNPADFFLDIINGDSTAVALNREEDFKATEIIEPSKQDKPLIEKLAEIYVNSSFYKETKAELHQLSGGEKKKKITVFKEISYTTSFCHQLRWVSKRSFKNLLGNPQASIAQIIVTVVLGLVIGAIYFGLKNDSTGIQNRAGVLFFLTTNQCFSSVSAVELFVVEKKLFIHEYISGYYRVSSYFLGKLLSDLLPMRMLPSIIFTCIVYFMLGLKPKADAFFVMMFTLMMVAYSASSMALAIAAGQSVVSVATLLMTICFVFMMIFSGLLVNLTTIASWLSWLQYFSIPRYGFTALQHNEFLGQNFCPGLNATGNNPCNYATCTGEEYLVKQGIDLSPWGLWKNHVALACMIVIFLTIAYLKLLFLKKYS
Sequence of EGFR (P00533 25-1210): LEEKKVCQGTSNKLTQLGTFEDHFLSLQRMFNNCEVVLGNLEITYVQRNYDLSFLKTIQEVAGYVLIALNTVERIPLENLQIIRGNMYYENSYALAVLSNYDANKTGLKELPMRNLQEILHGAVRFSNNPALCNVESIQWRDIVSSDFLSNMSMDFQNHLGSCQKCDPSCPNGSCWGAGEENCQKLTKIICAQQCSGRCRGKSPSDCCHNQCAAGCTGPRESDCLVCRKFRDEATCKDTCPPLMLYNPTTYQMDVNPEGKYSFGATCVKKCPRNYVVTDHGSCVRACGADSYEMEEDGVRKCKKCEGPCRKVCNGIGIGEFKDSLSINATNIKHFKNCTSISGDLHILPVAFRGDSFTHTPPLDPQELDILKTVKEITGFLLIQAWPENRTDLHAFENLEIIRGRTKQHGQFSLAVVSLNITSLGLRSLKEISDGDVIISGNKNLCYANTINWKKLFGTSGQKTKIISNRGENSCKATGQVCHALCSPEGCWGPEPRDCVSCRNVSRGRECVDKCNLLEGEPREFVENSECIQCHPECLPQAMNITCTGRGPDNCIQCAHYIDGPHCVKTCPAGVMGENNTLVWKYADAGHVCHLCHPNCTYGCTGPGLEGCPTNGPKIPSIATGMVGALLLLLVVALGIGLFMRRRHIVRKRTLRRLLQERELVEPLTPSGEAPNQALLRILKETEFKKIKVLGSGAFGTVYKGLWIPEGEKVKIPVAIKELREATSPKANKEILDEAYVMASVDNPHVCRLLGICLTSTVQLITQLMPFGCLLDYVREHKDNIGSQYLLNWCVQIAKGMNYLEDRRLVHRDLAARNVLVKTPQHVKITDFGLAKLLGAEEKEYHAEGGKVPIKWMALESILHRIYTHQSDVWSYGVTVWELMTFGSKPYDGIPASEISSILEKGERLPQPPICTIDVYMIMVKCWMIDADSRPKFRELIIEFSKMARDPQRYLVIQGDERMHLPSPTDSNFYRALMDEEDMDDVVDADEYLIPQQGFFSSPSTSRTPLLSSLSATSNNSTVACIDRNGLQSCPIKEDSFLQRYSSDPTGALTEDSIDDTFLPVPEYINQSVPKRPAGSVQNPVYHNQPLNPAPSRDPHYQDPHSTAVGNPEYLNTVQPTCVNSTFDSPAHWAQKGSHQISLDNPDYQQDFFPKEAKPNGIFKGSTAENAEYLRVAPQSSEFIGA
Sequence of EGFR wild type (EGFR WT) (P00533 25-1210): as above

| SMILES | IC50 (ErbB2 WT; ErbB2 WT enzyme assay) [µM] | IC50 (EGFR; EGFR enzyme assay) [µM] | IC50 [1, 2] [µM] | IC50 (EGFR wild type (EGFR WT); [3]) [µM] | efflux ratio at 2 h, 1 µM (BCRP) | efflux ratio at 2 h, 1 µM (MDR1 (P-gp)) | IC50 (ErbB2 WT; ErbB2 WT enzyme) [µM] | IC50 (EGFR; EGFR enzyme) [µM] | IC50 ([1]; ErbB2 YVMA phosphorylation) [µM] | IC50 (EGFR wild type (EGFR WT); [4]) [µM] |
| --- | --- | --- | --- | --- | --- | --- | --- | --- | --- | --- |
| C=CC(=O)N1[C@@H]2CC[C@H]1CC(c1ccc3ncnc(Nc4ccc(Oc5ccc6c(c5)ncn6C)c(C)c4F)c3n1)C2 (mixture of isomers) [Example 143, rac-1-((1R,5S)-3-(4-((2-fluoro-3-methyl-4-((1-methyl-1H-benzo[d]imidazol-5-yl)oxy)phenyl)amino)pyrido[3,2-d]pyrimidin-6-yl)-8-azabicyclo[3.2.1]octan-8-yl)prop-2-en-1-one] | – | – | – | – | 3 | 1.7 | 0.0327 | 1.85 | 0.0209 | 2.94 |
| C=CC(=O)N1CCC(Oc2ccc3ncnc(Nc4ccc(Oc5ccn6ccnc6c5)c(C)c4)c3n2)CC1 [Example 15, 1-(4-((4-((4-(imidazo[1,2-a]pyridin-7-yloxy)-3-methylphenyl)amino)pyrido[3,2-d]pyrimidin-6-yl)oxy)piperidin-1-yl)prop-2-en-1-one] | – | – | – | – | – | 10.2 | 0.0455 | 1.68 | 0.0128 | 0.555 |
| C=CC(=O)N1CCC(Oc2ccc3ncnc(Nc4ccc(Oc5ccn6ncnc6c5)c(C)c4F)c3n2)CC1 [Example 17, 1-(4-((4-((4-([1,2,4]triazolo[1,5-a]pyridin-7-yloxy)-2-fluoro-3-methylphenyl)amino)pyrido[3,2-d]pyrimidin-6-yl)oxy)piperidin-1-yl)prop-2-en-1-one] | – | – | – | – | – | 2.7 | 0.0483 | 2.11 | 0.014 | 1.22 |
| C=CC(=O)N1CCC(N(C)c2ccc3ncnc(Nc4ccc(Oc5ccn6ncnc6c5)c(C)c4F)c3n2)CC1 [Example 32, 1-(4-((4-((4-([1,2,4]triazolo[1,5-a]pyridin-7-yloxy)-2-fluoro-3-methylphenyl)amino)pyrido[3,2-d]pyrimidin-6-yl)(methyl)amino)piperidin-1-yl)prop-2-en-1-one] | – | – | – | – | – | 1.9 | 0.0458 | 5.53 | 0.131 | ≥ 5 |
| C=CC(=O)N1C2CCC1CN(c1ccc3ncnc(Nc4cc(Cl)c(Oc5ccn6ncnc6c5)cc4F)c3n1)C2 [Example 434] | 0.0208 | 1.23 | 0.0098 | 3.49 | 13.6 | – | – | – | – | – |
| C=CC(=O)N1CC2CCC(C1)N2c1ccc2ncnc(Nc3cc(Cl)c(Oc4ccn5ncnc5c4)cc3F)c2n1 [Example 441] | 0.0311 | 0.682 | 0.0178 | 0.77 | 7.3 | – | – | – | – | – |
| C=CC(=O)N1C2CCC1CN(c1ccc3ncnc(Nc4cc(C)c(Oc5ccn6ncnc6c5)cc4F)c3n1)C2 [Example 443] | 0.0906 | 4.15 | 0.0255 | 2.82 | 10 | – | – | – | – | – |
| C=CC(=O)N1C2CCC1CN(c1ccc3ncnc(Nc4ccc(Oc5ccn6ncnc6c5)c(C)c4F)c3n1)C2 [Example 444] | 0.012 | 0.379 | 0.0059 | 0.352 | 9 | – | – | – | – | – |
| C=CC(=O)N1C2CC1CN(c1ccc3ncnc(Nc4cc(C)c(Oc5cnc6c(c5)ncn6C)cc4F)c3n1)C2 [Example 446] | 2.56 | ≥ 10 | 0.028 | ≥ 5 | 19.4 | – | – | – | – | – |
| C=CC(=O)N1CC2CCC(C1)N2c1ccc2ncnc(Nc3ccc(Oc4ccn5ncnc5c4)c(C)c3F)c2n1 [Example 455] | 0.0041 | 0.0873 | 0.0048 | 0.193 | 9.6 | – | – | – | – | – |

Second part, the compound after the results:

| IC50 (ErbB2 WT; ErbB2 WT enzyme assay) [µM] | IC50 (EGFR; EGFR enzyme assay) [µM] | IC50 [1, 2] [µM] | IC50 (EGFR wild type (EGFR WT); [3]) [µM] | efflux ratio at 2 h, 1 µM (BCRP) | efflux ratio at 2 h, 1 µM (MDR1 (P-gp)) | IC50 (ErbB2 WT; ErbB2 WT enzyme) [µM] | IC50 (EGFR; EGFR enzyme) [µM] | IC50 ([1]; ErbB2 YVMA phosphorylation) [µM] | IC50 (EGFR wild type (EGFR WT); [4]) [µM] | SMILES |
| --- | --- | --- | --- | --- | --- | --- | --- | --- | --- | --- |
| 0.0283 | 0.848 | 0.0294 | 1.95 | 5 | 1.3 | – | – | – | – | C=CC(=O)N1C[C@@H](c2ccc3ncnc(Nc4ccc(Oc5ccn6ncnc6c5)c(C)c4F)c3n2)C[C@@H]1C (mixture of isomers) [Example 385] |
| – | – | – | – | 4.2 | 0.8 | 0.105 | ≥ 10 | 0.0189 | 1.7 | C=CC(=O)N1C[C@H](c2ccc3ncnc(Nc4ccc(Oc5ccc6c(c5)ncn6C)c(C)c4F)c3n2)CCC1(C)C (racemic) [Example 36, 1-(5-(4-((2-fluoro-3-methyl-4-((1-methyl-1H-benzo[d]imidazol-5-yl)oxy)phenyl)amino)pyrido[3,2-d]pyrimidin-6-yl)-2,2-dimethylpiperidin-1-yl)prop-2-en-1-one] |
| – | – | – | – | 1.8 | 1.5 | 0.119 | ≥ 10 | 0.0203 | ≥ 5 | C=CC(=O)N1CC[C@H]2C[C@@H](c3ccc4ncnc(Nc5cc(C)c(Oc6ccc7c(c6)ncn7C)cc5F)c4n3)C[C@H]21 (racemic) [Example 37, 1-(5-(4-((2-fluoro-5-methyl-4-((1-methyl-1H-benzo[d]imidazol-5-yl)oxy)phenyl)amino)pyrido[3,2-d]pyrimidin-6-yl)hexahydrocyclopenta[b]pyrrol-1(2H)-yl)prop-2-en-1-one] |
| – | – | – | – | 1.4 | 1.4 | 0.0659 | 7.93 | 0.0166 | ≥ 5 | C=CC(=O)N1CCC[C@@H](c2ccc3ncnc(Nc4cc(C)c(Oc5ccc6c(c5)ncn6C)cc4F)c3n2)C1 (racemic) [Example 129, rac-(R)-1-(3-(4-((2-fluoro-5-methyl-4-((1-methyl-1H-benzo[d]imidazol-5-yl)oxy)phenyl)amino)pyrido[3,2-d]pyrimidin-6-yl)piperidin-1-yl)prop-2-en-1-one] |
| – | – | – | – | 1.9 | 1.2 | 0.225 | ≥ 10 | 0.0311 | ≥ 5 | C=CC(=O)N1CC[C@H](c2ccc3ncnc(Nc4ccc(Oc5ccc6c(c5)ncn6C)c(C)c4F)c3n2)CC(C)(C)C1 (racemic) [Example 140, rac-(R)-1-(5-(4-((2-fluoro-3-methyl-4-((1-methyl-1H-benzo[d]imidazol-5-yl)oxy)phenyl)amino)pyrido[3,2-d]pyrimidin-6-yl)-3,3-dimethylazepan-1-yl)prop-2-en-1-one] |
| – | – | – | – | – | 34.5 | 0.395 | ≥ 10 | 0.0347 | ≥ 5 | C=CC(=O)N1CCC(Oc2ccc3ncnc(Nc4ccc(Oc5cc6nn(C)cc6cn5)c(C)c4)c3n2)CC1 [Example 52, 1-(4-((4-((3-methyl-4-((2-methyl-2H-pyrazolo[4,3-c]pyridin-6-yl)oxy)phenyl)amino)pyrido[3,2-d]pyrimidin-6-yl)oxy)piperidin-1-yl)prop-2-en-1-one] |
| – | – | – | – | – | 3.9 | 0.0411 | 3.8 | 0.016 | ≥ 5 | C=CC(=O)N1C[C@@H](c2ccc3ncnc(Nc4cc(C)c(Oc5ccc6c(c5)ncn6C)cc4F)c3n2)C[C@@H]1C [Example 190, 1-((2S,4S)-4-(4-((2-fluoro-5-methyl-4-((1-methyl-1H-benzo[d]imidazol-5-yl)oxy)phenyl)amino)pyrido[3,2-d]pyrimidin-6-yl)-2-methylpyrrolidin-1-yl)prop-2-en-1-one] |
| 0.0436 | 1.03 | 0.019 | 2.02 | 4 | – | – | – | – | – | C=CC(=O)N1C[C@@H]2C[C@H]1C[C@H]2c1ccc2ncnc(Nc3cc(C)c(Oc4ccc5c(c4)ncn5C)cc3F)c2n1 [Example 375] |
| 0.0125 | 0.979 | 0.0175 | 0.488 | 9.5 | – | – | – | – | – | C=CC(=O)N1CC[C@H]2C[C@H](c3ccc4ncnc(Nc5ccc(Oc6ccn7ncnc7c6)c(C)c5)c4n3)C[C@H]21 [Example 383] |
| 0.0195 | 1.64 | 0.0172 | 4.55 | 13.7 | – | – | – | – | – | C=CC(=O)N1C[C@H]2C[C@@H]1[C@H](c1ccc3ncnc(Nc4ccc(Oc5ccn6ncnc6c5)c(C)c4)c3n1)C2 [Example 405] |
| 0.038 | 1.51 | 0.0204 | ≥ 5 | 16 | – | – | – | – | – | C=CC(=O)N1C[C@H]2C[C@@H]1[C@H](c1ccc3ncnc(Nc4ccc(Oc5cnc6c(c5)ncn6C)c(C)c4)c3n1)C2 [Example 407] |
| 0.289 | ≥ 10 | 0.0338 | ≥ 5 | 2.5 | – | – | – | – | – | C=CC(=O)N1C[C@H]2CC[C@@H]1C[C@@H]2c1ccc2ncnc(Nc3cc(C)c(Oc4cnc5c(c4)ncn5C)cc3F)c2n1 [Example 420] |
| 0.148 | 9.73 | 0.0186 | 4.91 | 9.3 | – | – | – | – | – | C=CC(=O)N1CCN(c2ccc3ncnc(Nc4ccc(Oc5cnc6c(c5)ncn6C)c(C)c4F)c3n2)C[C@@H]1C [Example 437] |
| 0.0292 | ≥ 10 | 0.0175 | ≥ 5 | 20.3 | – | – | – | – | – | C=CC(=O)N1CCN(c2ccc3ncnc(Nc4ccc(Oc5ccc6c(c5)ncn6C)c(C(F)F)c4)c3n2)CC1 [Example 447] |
| 0.452 | 1.06 | 0.0128 | ≥ 5 | 6.2 | – | – | – | – | – | C=CC(=O)N1CCN(c2ccc3ncnc(Nc4cc(Cl)c(Oc5cnc6c(c5)ncn6C)cc4F)c3n2)CC1(C)C [Example 452] |

Reference: patent US12447153B2, “HER2 mutation inhibitors” (Array BioPharma Inc., priority 2021, dated 2025)
